The source of these data is PubChem BioAssay AID330 (DTP/NCI, 2004).

The test system of the experiment is P388 leukemia ip, CD2F1 mice, survival T/C. In words: NCI In Vivo Anticancer Drug Screen. Data for tumor model P388 Leukemia (intraperitoneal) in CD2F1 (CDF1) mice. The following applies: endpoint: median survival time, higher = longer survival. A digest of the protocol:
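Mice carrying the transplanted tumor received test compound or vehicle. Survival was recorded in each group, and the value is the treated-group measurement divided by that of the vehicle-treated control group.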

The mark [1] stands for this setting: dose: 25.0 mg/kg/injection, schedule: Q01DX005 (ip), vehicle: Klucel (hydroxypropylcellulose) (HPC).
Setting [2] is: dose: 50.0 mg/kg/injection, schedule: Q01DX005 (ip), vehicle: Klucel (hydroxypropylcellulose) (HPC).
Where [3] appears, read: dose: 100.0 mg/kg/injection, schedule: Q01DX005 (ip), vehicle: Klucel (hydroxypropylcellulose) (HPC).
Where [4] appears, read: dose: 200.0 mg/kg/injection, schedule: Q01DX005 (ip), vehicle: Klucel (hydroxypropylcellulose) (HPC).
Setting [5] is: dose: 50.0 mg/kg/injection, schedule: Q01DX005 (ip), vehicle: saline with Tween-80.
Where [6] appears, read: dose: 50.0 mg/kg/injection, schedule: Q01DX009 (ip), vehicle: suspension in saline.
The mark [7] stands for this setting: dose: 100.0 mg/kg/injection, schedule: Q01DX009 (ip), vehicle: suspension in saline.
[8] abbreviates: dose: 200.0 mg/kg/injection, schedule: Q01DX009 (ip), vehicle: suspension in saline.
The mark [9] stands for this setting: dose: 100.0 mg/kg/injection, schedule: Q01DX005 (ip), vehicle: saline with Tween-80.
The mark [10] stands for this setting: dose: 200.0 mg/kg/injection, schedule: Q01DX005 (ip), vehicle: saline with Tween-80.
Setting [11] is: dose: 100.0 mg/kg/injection, schedule: Q01DX009 (ip), vehicle: saline with Tween-80.
Setting [12] is: dose: 200.0 mg/kg/injection, schedule: Q01DX009 (ip), vehicle: saline with Tween-80.
Where [13] appears, read: dose: 100.0 mg/kg/injection, schedule: Q01DX001 (ip), vehicle: saline with Tween-80.
[14] abbreviates: dose: 200.0 mg/kg/injection, schedule: Q01DX001 (ip), vehicle: saline with Tween-80.
[15] abbreviates: dose: 400.0 mg/kg/injection, schedule: Q01DX001 (ip), vehicle: saline with Tween-80.
The mark [16] stands for this setting: dose: 60.0 mg/kg/injection, schedule: Q01DX005 (ip), vehicle: saline with Tween-80.
The mark [17] stands for this setting: dose: 120.0 mg/kg/injection, schedule: Q01DX005 (ip), vehicle: saline with Tween-80.
Where [18] appears, read: dose: 240.0 mg/kg/injection, schedule: Q01DX005 (ip), vehicle: saline with Tween-80.
The mark [19] stands for this setting: dose: 50.0 mg/kg/injection, schedule: Q01DX009 (ip), vehicle: saline with Tween-80.

Each structure is given as a SMILES string. “And” between values parts separate entries of the source, which are not always exact repeats. Equal entries are not always repeated. Inconclusive results and toxic doses are left out.

For the compound `O=C(Nc1ccc(N=C(Nc2ccccc2)c2ccccc2)cc1)c1ccc(C(=O)Nc2ccc(N=C(Nc3ccccc3)c3ccccc3)cc2)cc1`, the T/C reads like this: under setting [1], 98 % of control; under setting [2], 91 % of control; under setting [3], 91 % of control; under setting [4], 86 % of control.

Regarding `c1cc[c]([GeH][c]2ccccc2)cc1.c1cc[c]([GeH][c]2ccccc2)cc1`, the T/C was 101 % of control (dose: 12.5 mg/kg/injection, schedule: Q01DX005 (ip), vehicle: Klucel (hydroxypropylcellulose) (HPC)); 97 % of control under setting [1]; 100 % of control and 101 % of control under setting [2]; 99 % of control under setting [3]; 100 % of control under setting [4].

As to `COc1ccccc1C1OCC(C)(C)N1C` (stereo not drawn), the T/C was 100 % of control (dose: 18.75 mg/kg/injection, schedule: Q01DX001 (ip), vehicle: saline sonified); 95 % of control (dose: 37.5 mg/kg/injection, schedule: Q01DX001 (ip), vehicle: saline sonified); 110 % of control (dose: 75.0 mg/kg/injection, schedule: Q01DX001 (ip), vehicle: saline sonified); 105 % of control (dose: 75.0 mg/kg/injection, schedule: Q04DX003 (ip), vehicle: saline with Tween-80); 105 % of control (dose: 150.0 mg/kg/injection, schedule: Q04DX003 (ip), vehicle: saline with Tween-80); 100 % of control (dose: 300.0 mg/kg/injection, schedule: Q04DX003 (ip), vehicle: saline with Tween-80).

For the compound `CCOC(=O)c1sc(=S)n(C)c1C`, the T/C by setting is: (dose: 12.5 mg/kg/injection, schedule: Q01DX005 (ip), vehicle: saline with Tween-80) 100 % of control; (dose: 25.0 mg/kg/injection, schedule: Q01DX005 (ip), vehicle: saline with Tween-80) 103 % of control; under setting [5], 102 % of control and 104 % of control.

In the case of `Cc1ccc(-n2c(-c3ccc(-n4c(C)nc5ccc(Br)cc5c4=O)cc3)n[nH]c2=S)cc1`, the T/C (dose: 100.0 mg/kg/injection, schedule: Q04DX002 (ip), vehicle: Klucel (hydroxypropylcellulose) (HPC)) is 98 % of control; the T/C (dose: 200.0 mg/kg/injection, schedule: Q04DX002 (ip), vehicle: Klucel (hydroxypropylcellulose) (HPC)) is 106 % of control; the T/C (dose: 400.0 mg/kg/injection, schedule: Q04DX002 (ip), vehicle: Klucel (hydroxypropylcellulose) (HPC)) is 100 % of control.

For the compound `CCOc1cc2cc(CCC(=O)O)c(C)cc2cn1`, the T/C (dose: 12.5 mg/kg/injection, schedule: Q01DX009 (ip), vehicle: distilled water + Tween-80) was 101 % of control; the T/C (dose: 25.0 mg/kg/injection, schedule: Q01DX009 (ip), vehicle: distilled water + Tween-80) was 103 % of control; the T/C (dose: 50.0 mg/kg/injection, schedule: Q01DX009 (ip), vehicle: distilled water + Tween-80) is 97 % of control; the T/C (dose: 100.0 mg/kg/injection, schedule: Q01DX009 (ip), vehicle: distilled water + Tween-80) is 98 % of control; the T/C (dose: 200.0 mg/kg/injection, schedule: Q01DX009 (ip), vehicle: distilled water + Tween-80) is 107 % of control.

As for `S=c1nc[nH][nH]1`, the T/C under setting [6] is 99 % of control, the T/C under setting [7] was 105 % of control and the T/C under setting [8] was 106 % of control.

For `NC(=O)CSCC(=O)c1ccccc1`, the T/C by setting is: under setting [5], 102 % of control; under setting [9], 107 % of control; under setting [10], 102 % of control.

`COc1c(C)c2c(c(C)c1Cl)Oc1c(C)c(O)c(Cl)c(C)c1C(=O)O2`: the T/C by setting is: (dose: 1.12 mg/kg/injection, schedule: Q01DX009 (ip), vehicle: Klucel (hydroxypropylcellulose) (HPC)) 112 % of control; (dose: 2.25 mg/kg/injection, schedule: Q01DX009 (ip), vehicle: Klucel (hydroxypropylcellulose) (HPC)) 105 % of control; (dose: 4.5 mg/kg/injection, schedule: Q01DX009 (ip), vehicle: Klucel (hydroxypropylcellulose) (HPC)) 108 % of control; (dose: 9.0 mg/kg/injection, schedule: Q01DX009 (ip), vehicle: Klucel (hydroxypropylcellulose) (HPC)) 96 % of control; (dose: 18.0 mg/kg/injection, schedule: Q01DX009 (ip), vehicle: Klucel (hydroxypropylcellulose) (HPC)) 102 % of control.

Turning to `N#Cc1ncnc2nc[nH]c12`, the T/C under setting [2] was 101 % of control and the T/C under setting [3] was 107 % of control.

Take `Nc1cc(Cl)c(N=Nc2ccccc2)c(N)n1`: the T/C was 103 % of control under setting [11]; 107 % of control under setting [12]; 94 % of control (dose: 400.0 mg/kg/injection, schedule: Q01DX009 (ip), vehicle: saline with Tween-80).

For `c1ccc2c(c1)Cc1ccnnc1-2`, the T/C under setting [5] was 103 % of control, the T/C under setting [9] is 103 % of control and the T/C under setting [10] is 92 % of control.

Regarding `CCCn1c(Cl)c(/C=N\Nc2ccccc2[N+](=O)[O-])c2ccccc21`, the T/C is, setting by setting: under setting [13], 92 % of control; under setting [14], 92 % of control; under setting [15], 93 % of control.

For the compound `CCC1=NO[C@@H](C(=O)OCc2ccccc2)[C@H]1C`, the T/C was 113 % of control under setting [16], 103 % of control under setting [17] and 95 % of control under setting [18].

In the case of `CCCc1c(C)nc2scc(-c3ccc(Cl)cc3)n2c1=O`, the T/C was 96 % of control under setting [19], 98 % of control under setting [11] and 96 % of control under setting [12].

Consider `CC(=S)NC(O)C(=O)c1ccccc1` (stereo not drawn), for which the T/C under setting [19] was 121 % of control.

For `CN1CCCC(Cc2ccccc2)S1(=O)=O` (stereo not drawn), the T/C was 98 % of control under setting [13], 99 % of control under setting [14] and 98 % of control under setting [15].

For the compound `OCC1OC(ONc2ccccc2)C(O)C(O)C1O` (stereo not drawn), the T/C runs as follows: (dose: 60.0 mg/kg/injection, schedule: Q01DX005 (ip), vehicle: Klucel (hydroxypropylcellulose) (HPC)) 94 % of control; (dose: 120.0 mg/kg/injection, schedule: Q01DX005 (ip), vehicle: Klucel (hydroxypropylcellulose) (HPC)) 99 % of control; (dose: 240.0 mg/kg/injection, schedule: Q01DX005 (ip), vehicle: Klucel (hydroxypropylcellulose) (HPC)) 100 % of control.

For `CCCSc1ccc2nc(NC(=O)OC)[nH]c2c1`, the T/C under setting [16] was 106 % of control and 111 % of control; the T/C under setting [17] is 109 % of control and 112 % of control; the T/C (dose: 480.0 mg/kg/injection, schedule: Q01DX005 (ip), vehicle: saline with Tween-80) is 156 % of control.

As to `COC(=O)c1cc2ccc1OCC#CC#CCOc1ccc(cc1C(=O)OC)OCC#CC#CCO2`, the T/C is, setting by setting: under setting [16], 89 % of control; under setting [17], 88 % of control; under setting [18], 88 % of control.

Regarding `O=C(Nc1cccc2ccccc12)OCC1CC1`, the T/C is, setting by setting: (dose: 50.0 mg/kg/injection, schedule: Q04DX003 (ip), vehicle: saline with Tween-80) 98 % of control; (dose: 100.0 mg/kg/injection, schedule: Q04DX003 (ip), vehicle: saline with Tween-80) 102 % of control; (dose: 200.0 mg/kg/injection, schedule: Q04DX003 (ip), vehicle: saline with Tween-80) 100 % of control; (dose: 400.0 mg/kg/injection, schedule: Q04DX003 (ip), vehicle: saline with Tween-80) 100 % of control.

In the case of `CCCC1C(=O)N2C(N(C)C)=Nc3ccc(C)cc3N2C1=O` (stereo not drawn), the T/C is 101 % of control under setting [6]; 104 % of control under setting [7]; 106 % of control under setting [8]; 97 % of control (dose: 400.0 mg/kg/injection, schedule: Q01DX009 (ip), vehicle: suspension in saline).

As to `Cc1cnc2c(c1)CCCC2C(N)=S` (stereo not drawn), the T/C was 99 % of control (dose: 50.0 mg/kg/injection, schedule: Q01DX009 (ip), vehicle: saline); 95 % of control (dose: 100.0 mg/kg/injection, schedule: Q01DX009 (ip), vehicle: saline); 107 % of control (dose: 200.0 mg/kg/injection, schedule: Q01DX009 (ip), vehicle: saline).
